In paper PMC10892041, “Vanadium Complexes with Thioanilide Derivatives of Amino Acids: Inhibition of Human Phosphatases and Specificity in Various Cell Models of Metabolic Disturbances” (Pharmaceuticals, 2024):

What was measured:
SHP2 = biological target: T1, SHP2 (Homo sapiens, UniProt Q06124); assay: Inhibition of human recombinant tyrosine phosphatase SHP2 (DiFMUP fluorescence); format: biochemical; conditions: for Inhibition of SHP2, percentage of inhibition of the control: 1 µM, control solvent only, SD did not exceed 6%
T1 construct: purchased Sigma-Aldrich
T1 sequence (Q06124 1-593): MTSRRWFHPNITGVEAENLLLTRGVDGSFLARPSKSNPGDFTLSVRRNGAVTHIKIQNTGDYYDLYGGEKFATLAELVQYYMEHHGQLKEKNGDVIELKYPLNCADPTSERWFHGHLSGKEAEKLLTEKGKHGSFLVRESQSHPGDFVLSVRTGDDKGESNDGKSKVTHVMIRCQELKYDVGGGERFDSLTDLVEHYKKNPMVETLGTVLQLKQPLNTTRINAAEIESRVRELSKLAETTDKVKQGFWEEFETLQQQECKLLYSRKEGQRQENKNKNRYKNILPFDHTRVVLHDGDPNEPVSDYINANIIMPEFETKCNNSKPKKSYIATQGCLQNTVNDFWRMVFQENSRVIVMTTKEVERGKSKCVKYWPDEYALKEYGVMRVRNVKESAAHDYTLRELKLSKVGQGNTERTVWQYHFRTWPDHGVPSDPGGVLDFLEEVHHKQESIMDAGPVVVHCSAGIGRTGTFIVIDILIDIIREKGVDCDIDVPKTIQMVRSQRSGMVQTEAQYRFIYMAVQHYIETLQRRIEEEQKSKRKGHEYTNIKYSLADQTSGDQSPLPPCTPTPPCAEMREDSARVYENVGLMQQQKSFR
Procedure, shortened: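 Human recombinant phosphatases (SHP1 400 ng/mL, SHP2 50 ng/mL, LAR 5 ng/mL final) were pre-incubated 10 min with compound in 25 mM MOPS pH 7.0, 50 mM NaCl, 1 mM DTT, 0.05% Tween-20. DiFMUP (0.1 mM final) was added for 20 min at 23 °C and fluorescence read at 355/560 nm. Screening used 1 µM compound (% inhibition vs vehicle); IC50 also reported.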

CDC25A = biological target: T2, CDC25A (Homo sapiens, UniProt P30304); assay: Inhibition of human recombinant non-tyrosine phosphatase CDC25A (3-O-methylfluorescein phosphate); format: biochemical
T2 construct: purchased Sigma-Aldrich
T2 sequence (P30304 1-524): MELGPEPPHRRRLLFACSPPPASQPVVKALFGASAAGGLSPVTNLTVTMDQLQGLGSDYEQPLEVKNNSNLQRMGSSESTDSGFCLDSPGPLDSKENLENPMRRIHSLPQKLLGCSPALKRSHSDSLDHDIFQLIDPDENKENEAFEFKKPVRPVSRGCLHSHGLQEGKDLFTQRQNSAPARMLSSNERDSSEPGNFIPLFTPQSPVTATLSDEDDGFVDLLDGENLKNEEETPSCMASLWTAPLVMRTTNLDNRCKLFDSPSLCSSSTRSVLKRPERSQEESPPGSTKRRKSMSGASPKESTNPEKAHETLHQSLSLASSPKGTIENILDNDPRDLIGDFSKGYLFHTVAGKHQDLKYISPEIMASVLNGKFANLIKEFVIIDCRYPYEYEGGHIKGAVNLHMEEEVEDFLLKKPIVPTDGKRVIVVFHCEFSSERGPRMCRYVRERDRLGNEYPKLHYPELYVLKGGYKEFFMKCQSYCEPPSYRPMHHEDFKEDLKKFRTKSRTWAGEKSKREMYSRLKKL
Experimental: For the inhibition assay of non-tyrosine phosphatases, human recombinant proteins were used (Sigma-Aldrich). The reactions were performed in black opaque 384-well microplates (PerkinElmer). To the solution of the tested complexes, an equal volume of a test solution of phosphatase was added. CDC25A were diluted in reaction buffer to the final concentration of 400 ng/mL as for tyrosine phosphatases (described in the section above), and PPA2 (final 0.5 U/mL) was diluted in 50 mM Tris-HCl, 0.05% Tween-20, and 125 µg/mL protease-free bovine serum albumin (pH 7.0). These solutions were dispensed using an automated injector. After 10 min, a solution of phosphate 6,8-difluoro-4-methyl (DiFMUP; Thermo Fisher Scientific) was added for the PPA2 sample until the final concentration 0.1 mM. For CDC25A samples, 3-O-methylfluorescein phosphate for the final concentration of 0.2 mM was added. Samples were incubated for 180 min at 23 °C, and then the measurements of fluorescence intensity (excitation 355 and emission 560 nm) were performed on a multifunctional plate reader POLARstar Omega (BMG Labtech). Assays were performed in triplicate. The results were expressed as percent of inhibition of untreated control (enzyme with vehicle solvent only).

adipocytes 3T3-L1 = assay: Scintillation proximity assay, transport of [14C]-deoxy-D-glucose into adipocytes 3T3-L1; format: cell-based, mouse; conditions: 50 µM
Experimental: Adipocytes 3T3-L1 cell line (ATCC CRL-11605) derived from fibroblasts from mouse embryo tissue were cultured according to standard protocol in DMEM medium supplemented with 10% bovine calf serum, 100 IU/mL penicillin, and […] streptomycin at 37 °C in 5% CO2. Cells were seeded in 96-well poly-D-lysine-coated plates and cultured to reach confluency.
Scintillation proximity assay (SPA) is a method to measure the real-time accumulation of radiolabeled substrates by adherent cells with no filtration needed. Radioactivity concentrated closer to the scintillator embedded in the plastic bottom of each well provides a stronger signal than the radiolabeled substrate in the culture medium. Uptake of radiolabeled 2-deoxy-D-[U-14C]-glucose was conducted based on previous descriptions.
Adipocytes were washed and the medium was changed to the basal medium. After 24 h incubation, the tested complexes were added. After 2 h incubation at 37 °C in 5% CO2, the medium was changed to DMEM medium without glucose, with 0.1% BSA free from fatty acid, […] L-glutamine, and […] pyruvate. The tested complexes were added again, and further incubation for 4 h was conducted.
For cells proceeded as above, 2-deoxy-D-[U-14C]-glucose (250–350 mCi/mmol, NEC720A, PerkinElmer) solution in KRB with a total activity of 0.03 mCi was added to each well. […] Non-specific radioactivity was subtracted from each result (cpm). Two independent experiments with triplicates were conducted.

## Cc1occc(=O)c1[O-].Cc1occc(=O)c1[O-].[O]=[V+2] [BMOV, bis(maltolato)oxidovanadium(IV), reference compound]
SHP2
  IC50: 8 nM
  Inhibition of SHP2, percentage of inhibition of the control: 82%
CDC25A; 1 µM
  Inhibition of CDC25A, percentage inhibition of control ± SD: 54 ± 1%
CDC25A; 10 µM
  Inhibition of CDC25A, percentage inhibition of control ± SD: 61 ± 1%
Adipocytes 3T3-L1
  Transport of [14C]-deoxy-D-glucose into 3T3-L1 adipocytes, % of control: low activity

## O=S(=O)([O-])[O-].[O]=[V+2] [VOSO4, reference compound]
SHP2
  IC50: 13 nM
  Inhibition of SHP2, percentage of inhibition of the control: 77%
CDC25A; 1 µM
  Inhibition of CDC25A, percentage inhibition of control ± SD: 54 ± 2%
CDC25A; 10 µM
  Inhibition of CDC25A, percentage inhibition of control ± SD: 62 ± 1%
Adipocytes 3T3-L1
  Transport of [14C]-deoxy-D-glucose into 3T3-L1 adipocytes, % of control: low activity
